The record followed here is patent US8552006B2, “Modulators of cystic fibrosis transmembrane conductance regulator” (Vertex Pharmaceuticals Incorporated, priority 2007, dated 2013).

The assay addresses T1, ΔF508-CFTR (Homo sapiens, UniProt P13569, DEL508-508).
T1 construct: expressed in transfected cells
Put plainly: Membrane potential optical assay for potentiators of ΔF508-CFTR (double-addition HTS, FLIPR III). The format is cell-based. The conditions noted are these: for Emax: 100% efficacy is the maximum response obtained with 4-methyl-2-(5-phenyl-1H-pyrazol-3-yl)phenol; for EC50: temperature-corrected ΔF508 CFTR NIH 3T3 cells, potentiation with forskolin activation. The source says: Membrane Potential Optical Methods for Assaying ΔF508-CFTR Modulation Properties of Compounds
The assay utilizes fluorescent voltage sensing dyes to measure changes in membrane potential using a fluorescent plate reader (e.g., FLIPR III, Molecular Devices, Inc.) as a readout for increase in functional ΔF508-CFTR in NIH 3T3 cells. The driving force for the response is the creation of a chloride ion gradient in conjunction with channel activation by a single liquid addition step after the cells have previously been treated with compounds and subsequently loaded with a voltage sensing dye.
To identify potentiators of ΔF508-CFTR, a double-addition HTS assay format was developed. This HTS assay utilizes fluorescent voltage sensing dyes to measure changes in membrane potential on the FLIPR III as a measurement for increase in gating (conductance) of ΔF508 CFTR in temperature-corrected ΔF508 CFTR NIH 3T3 cells. The driving force for the response is a Cl^− ion gradient in conjunction with channel activation with forskolin in a single liquid addition step using a fluoresecent plate reader such as FLIPR III after the cells have previously been treated with potentiator compounds (or DMSO vehicle control) and subsequently loaded with a redistribution dye.
Bath Solution #1: (in mM) NaCl 160, KCl 4.5, CaCl2 2, MgCl2 1, HEPES 10, pH 7.4 with NaOH.
Chloride-Free Bath Solution: Chloride Salts in Bath Solution #1 are Substituted with Gluconate Salts.
NIH3T3 mouse fibroblasts stably expressing ΔF508-CFTR are used for optical measurements of membrane potential. The cells are maintained at 37° C. in 5% CO2 and 90% humidity in Dulbecco's modified Eagle's medium supplemented with 2 mM glutamine, 10% fetal bovine serum, 1×NEAA, β-ME, 1× pen/strep, and 25 mM HEPES in 175 cm^2 culture flasks. For all optical assays, the cells were seeded at ˜20,000/well in 384-well matrigel-coated plates and cultured for 2 hrs at 37° C. before culturing at 27° C. for 24 hrs. for the potentiator assay. For the correction assays, the cells are cultured at 27° C. or 37° C. with and without compounds for 16-24 hours. Electrophysiological Assays for assaying ΔF508-CFTR modulation properties of compounds.

T1 sequence (P13569 with tags, fused parts or gaps DEL508-508): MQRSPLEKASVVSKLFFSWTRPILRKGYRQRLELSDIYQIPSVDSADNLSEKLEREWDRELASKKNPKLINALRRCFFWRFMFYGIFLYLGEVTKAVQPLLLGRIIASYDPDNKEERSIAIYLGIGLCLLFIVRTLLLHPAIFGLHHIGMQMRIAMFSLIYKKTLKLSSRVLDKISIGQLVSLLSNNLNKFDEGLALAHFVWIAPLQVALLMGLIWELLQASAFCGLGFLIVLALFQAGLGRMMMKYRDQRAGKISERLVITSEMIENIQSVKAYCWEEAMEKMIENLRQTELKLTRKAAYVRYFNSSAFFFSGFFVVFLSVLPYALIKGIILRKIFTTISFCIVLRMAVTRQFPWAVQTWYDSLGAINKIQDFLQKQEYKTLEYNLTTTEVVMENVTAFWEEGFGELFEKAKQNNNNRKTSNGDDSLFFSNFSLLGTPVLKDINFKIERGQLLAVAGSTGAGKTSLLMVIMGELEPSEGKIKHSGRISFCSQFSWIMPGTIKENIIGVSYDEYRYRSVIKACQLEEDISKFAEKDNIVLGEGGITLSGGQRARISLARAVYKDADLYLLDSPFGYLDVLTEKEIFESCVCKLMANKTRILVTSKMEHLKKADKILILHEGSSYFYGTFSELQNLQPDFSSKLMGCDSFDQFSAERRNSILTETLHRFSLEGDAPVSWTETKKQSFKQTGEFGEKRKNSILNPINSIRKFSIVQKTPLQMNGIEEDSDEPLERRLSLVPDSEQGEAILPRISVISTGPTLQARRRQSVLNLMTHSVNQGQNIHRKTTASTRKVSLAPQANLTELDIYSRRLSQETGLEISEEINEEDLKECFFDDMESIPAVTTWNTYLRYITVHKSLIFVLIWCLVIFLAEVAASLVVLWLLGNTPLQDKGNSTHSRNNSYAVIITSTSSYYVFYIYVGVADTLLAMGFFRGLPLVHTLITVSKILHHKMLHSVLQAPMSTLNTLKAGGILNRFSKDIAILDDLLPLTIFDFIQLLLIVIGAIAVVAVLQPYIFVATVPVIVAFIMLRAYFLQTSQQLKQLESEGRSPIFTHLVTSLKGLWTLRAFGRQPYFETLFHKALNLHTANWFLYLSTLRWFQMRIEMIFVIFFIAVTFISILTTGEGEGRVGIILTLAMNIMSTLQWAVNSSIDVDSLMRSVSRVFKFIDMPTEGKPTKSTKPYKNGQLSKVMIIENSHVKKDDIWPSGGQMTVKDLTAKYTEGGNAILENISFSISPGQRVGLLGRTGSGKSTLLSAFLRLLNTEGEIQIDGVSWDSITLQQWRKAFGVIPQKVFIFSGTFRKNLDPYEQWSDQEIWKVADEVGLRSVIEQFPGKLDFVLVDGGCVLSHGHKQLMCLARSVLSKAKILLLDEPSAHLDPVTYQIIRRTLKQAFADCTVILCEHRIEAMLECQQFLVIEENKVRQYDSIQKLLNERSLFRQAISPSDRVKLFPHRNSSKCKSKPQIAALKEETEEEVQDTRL

One may read the Emax as the greatest response seen or fitted, relative to the assay's reference. One may read the EC50 as the concentration at which the effect is half-maximal. On to `Cc1cc2[nH]cc(C(=O)Nc3cc(O)c(C4CCCC4)cc3C#N)c(=O)n2c1` [Compound 19], for which the Emax was in the range of 25 to 100% and the EC50 is < 5 µM.

With `Cc1cc2[nH]cc(C(=O)Nc3cc(O)c(C4CCCC4)cc3C)c(=O)n2c1` [Compound 18], the Emax was in the range of 25 to 100% and the EC50 is < 5 µM.

With `Cc1cc2[nH]cc(C(=O)Nc3ccc(N4CCC(C)(C)C4)cc3C(F)(F)F)c(=O)n2c1` [Compound 3], the Emax fell in the range of 25 to 100% and the EC50 was < 5 µM.

As for `CCc1cc2[nH]cc(C(=O)Nc3cc4[nH]ccc4cc3C(F)(F)F)c(=O)n2c1` [Compound 11], the Emax was in the range of 25 to 100% and the EC50 is < 5 µM.

As for `CCc1cc2[nH]cc(C(=O)Nc3cc(O)c(C4(C)CCCCC4)cc3F)c(=O)n2c1` [Compound 12], the Emax was 25 to 100% and the EC50 was 5 to 20 µM.

Take `Cc1cc2[nH]cc(C(=O)Nc3cc(O)c(C4(C)CCCCC4)cc3F)c(=O)n2c1` [Compound 15]: the Emax was in the range of 25 to 100% and the EC50 is < 5 µM.

For `CC(C)(C)c1cc2cc[nH]c2cc1NC(=O)c1c[nH]c2ccnn2c1=O` [Compound 6], the Emax lay in the range of 25 to 100% and the EC50 was < 5 µM.

For the compound `CCc1cc2[nH]cc(C(=O)Nc3cc(O)c(C(C)(C)C)cc3C(C)(C)C)c(=O)n2c1` [Compound 14, N-(2,4-di-tert-butyl-5-hydroxyphenyl)-7-ethyl-4-oxo-1,4-dihydropyrrolo[1,2-a]pyrimidine-3-carboxamide], the Emax is 25 to 100% and the EC50 is < 5 µM.

`O=C(Nc1ccc(N2CCCC2)cc1C(F)(F)F)c1c[nH]c2ccnn2c1=O` [Compound 13]: the Emax lay in the range of 25 to 100% and the EC50 was 5 to 20 µM.

Consider `CCc1cc2[nH]cc(C(=O)Nc3ccc4c(C(F)(F)F)c[nH]c4c3)c(=O)n2c1` [Compound 7], for which the Emax fell in the range of 25 to 100% and the EC50 was < 5 µM.

For the compound `CC(C)(C)c1cc(C(C)(C)C)c(NC(=O)c2c[nH]c3ccnn3c2=O)cc1O` [Compound 5, N-(2,4-di-tert-butyl-5-hydroxyphenyl)-7-oxo-4,7-dihydropyrazolo[1,5-a]pyrimidine-6-carboxamide], the Emax lay within 25 to 100% and the EC50 was < 5 µM.

Turning to `Cc1cc2[nH]cc(C(=O)Nc3cc4[nH]ccc4cc3C(C)(C)C)c(=O)n2n1` [Compound 4], the Emax fell in the range of 25 to 100% and the EC50 is < 5 µM.

Regarding `Cc1cc2[nH]cc(C(=O)Nc3cc(O)c(C4CCCC4)cc3C(F)(F)F)c(=O)n2c1` [Compound 16], the Emax lay in the range of 25 to 100% and the EC50 is < 5 µM.

Regarding `Cc1cc2[nH]cc(C(=O)Nc3ccc4cc[nH]c4c3)c(=O)n2n1` [Compound 10], the maximal effect (Emax) was in the range of 25 to 100% and the EC50 was > 20 µM.

For the compound `CCc1cc2[nH]cc(C(=O)Nc3ccc4c(C(C)(C)C)c[nH]c4c3)c(=O)n2c1` [Compound 9], the Emax was in the range of 25 to 100% and the EC50 was < 5 µM.

For `Cc1cc2[nH]cc(C(=O)Nc3ccc4c(C(F)(F)F)c[nH]c4c3)c(=O)n2c1` [Compound 17], the Emax is 25 to 100% and the EC50 was < 5 µM.

As to `CC(C)(C)c1c[nH]c2cc(NC(=O)c3c[nH]c4ccnn4c3=O)ccc12` [Compound 2], the Emax is > 100% and the EC50 is < 5 µM.

Consider `O=C(Nc1cc2[nH]ccc2cc1C(F)(F)F)c1c[nH]c2ccnn2c1=O` [Compound 8], for which the Emax was 25 to 100% and the EC50 lay within 5 to 20 µM.

For `Cc1cc2[nH]cc(C(=O)Nc3cc(O)c(C(C)(C)C)cc3C(C)(C)C)c(=O)n2n1` [Compound 1], the Emax is 25 to 100% and the EC50 is < 5 µM.
